Assay results published in ChEMBL document CHEMBL6121067, “Mitophagy in Neurodegenerative Diseases: Mechanisms of Action and the Advances of Drug Discovery” (J Med Chem, 2025).
Converted amounts (≈) assume the structure as drawn.

Legend:
[1] = molecular target: T1, Ubiquitin carboxyl-terminal hydrolase 30 (Homo sapiens, UniProt Q70CQ3); assay: Inhibition of USP30 (unknown origin)
T1 sequence (Q70CQ3 whole entry): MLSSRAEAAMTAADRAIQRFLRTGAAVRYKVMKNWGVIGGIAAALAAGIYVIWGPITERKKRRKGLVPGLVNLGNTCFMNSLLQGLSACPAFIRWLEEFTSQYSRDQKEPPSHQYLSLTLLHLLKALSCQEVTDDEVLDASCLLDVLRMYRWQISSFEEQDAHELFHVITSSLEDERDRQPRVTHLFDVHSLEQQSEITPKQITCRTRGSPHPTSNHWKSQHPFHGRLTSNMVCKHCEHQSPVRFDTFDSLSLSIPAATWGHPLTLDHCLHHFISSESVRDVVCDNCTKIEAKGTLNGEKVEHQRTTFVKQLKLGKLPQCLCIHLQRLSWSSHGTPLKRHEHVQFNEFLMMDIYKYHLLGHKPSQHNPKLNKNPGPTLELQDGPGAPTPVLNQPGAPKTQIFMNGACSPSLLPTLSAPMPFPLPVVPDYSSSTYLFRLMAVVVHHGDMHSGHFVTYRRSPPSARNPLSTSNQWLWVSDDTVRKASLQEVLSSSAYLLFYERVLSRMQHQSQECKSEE

[2] = molecular target: Serine/threonine-protein kinase PINK1, mitochondrial (Homo sapiens, UniProt Q9BXM7); assay: Activation of full length recombinant PINK1 (unknown origin) extracted from Escherichia coli BL21 (DE3) by UV absorbance based analysis
[3] = Solubility of compound at pH 6.8 incubated for 4 hrs by HPLC or LC-MS/MS analysis; type: physicochemical; conditions: buffer

Serine/threonine-protein kinase PINK1, mitochondrial, sequence (Q9BXM7 whole entry): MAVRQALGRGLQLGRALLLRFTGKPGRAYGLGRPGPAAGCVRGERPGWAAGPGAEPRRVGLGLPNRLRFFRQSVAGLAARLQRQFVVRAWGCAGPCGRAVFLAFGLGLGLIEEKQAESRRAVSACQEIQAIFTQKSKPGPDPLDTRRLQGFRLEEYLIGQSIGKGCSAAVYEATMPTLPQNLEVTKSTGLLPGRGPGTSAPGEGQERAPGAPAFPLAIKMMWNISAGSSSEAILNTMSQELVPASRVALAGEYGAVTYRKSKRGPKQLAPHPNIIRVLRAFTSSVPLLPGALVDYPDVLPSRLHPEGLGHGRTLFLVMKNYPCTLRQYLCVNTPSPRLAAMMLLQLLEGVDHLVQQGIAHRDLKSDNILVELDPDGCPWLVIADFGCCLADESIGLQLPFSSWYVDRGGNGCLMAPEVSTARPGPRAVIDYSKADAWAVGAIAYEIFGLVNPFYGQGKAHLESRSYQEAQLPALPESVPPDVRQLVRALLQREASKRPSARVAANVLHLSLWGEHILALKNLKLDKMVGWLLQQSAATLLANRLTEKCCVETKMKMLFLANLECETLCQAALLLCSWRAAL

Row | Structure (SMILES) | IC50 [1] [nM] | EC50 [2] [nM] | solubility at 4 h [3] [µg/mL]
1 | N#CN1CC[C@@H](NC(=O)c2cc(-c3ccccc3Oc3ccccc3)n[nH]2)C1 | 1.5 | – | –
2 | CC(=O)N1Cc2c(-c3ccc(C(=O)N4CCCc5ccccc54)cc3)cnn2C[C@@H]1C | – | 14500 | –
3 | COc1cc(C(=O)N[C@@H]2CCN(C#N)C2)ccc1-c1cnn(C)c1 | 15 | – | –
4 | CCn1c(-c2ccc(OCC(=O)O)c(OC)c2)nc(-c2ccccc2)c1-c1ccccc1 | 5120 | – | –
5 | N#CN1CC[C@@H](NC(=O)N2CC(c3ccn(-c4ccccc4)n3)C2)C1 | 15 | – | –
6 | N#CN1CC[C@H](CNC(=O)c2cc(-c3cccc(Cl)c3)no2)C1 | 15 | – | –
7 | CO[C@@H](C(=O)N1Cc2c(-c3ccc(C(=O)N4CCCc5ccccc54)cc3)cnn2C[C@@H]1C(C)C)c1ccccc1 | – | 40 | 3.8 (≈ 6.93 µM)
8 | C[C@@H](C(=O)N1Cc2c(-c3ccc(C(=O)N4CCCc5ccccc54)cc3)cnn2C[C@@H]1C)c1ccccc1 | – | 1500 | 1.5 (≈ 2.97 µM)
9 | CO[C@@H](C(=O)N1Cc2c(-c3ccc(C(=O)N4CCCc5ccccc54)cc3)cnn2C[C@@H]1C(C)C)c1cnn(C)c1 | – | 150 | 65 (≈ 118 µM)
10 | CC(C)[C@H]1Cn2ncc(-c3ccc(C(=O)N4CCCc5ccccc54)cc3)c2CN1C(=O)Cc1ccccc1 | – | 2900 | 3.6 (≈ 6.94 µM)
11 | COc1cc(-c2nc(-c3ccccc3)c(-c3ccccc3)n2C2CC2)ccc1OCC(=O)O | 8430 | – | –
